Experimental data as given in PMC9805530 (European journal of medicinal chemistry, 2022).

Assays:
Sirt5 = target: T1, Sirt5 (Homo sapiens, UniProt Q9NXA8); test: Fluorogenic Sirt5 Assay Kit; format: biochemical; conditions: 100 μM compounds, 37 °C 30 min
T1 sequence (Q9NXA8 37-310): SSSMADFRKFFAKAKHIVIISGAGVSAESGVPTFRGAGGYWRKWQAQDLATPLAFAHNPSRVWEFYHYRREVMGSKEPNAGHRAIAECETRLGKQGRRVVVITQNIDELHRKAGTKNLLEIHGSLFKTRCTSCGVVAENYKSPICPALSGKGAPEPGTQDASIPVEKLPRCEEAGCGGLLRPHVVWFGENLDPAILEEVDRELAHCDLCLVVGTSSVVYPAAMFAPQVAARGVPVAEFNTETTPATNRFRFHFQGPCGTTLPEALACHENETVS

Sirt6 [1] = target: T2, Sirt6 (Homo sapiens, UniProt Q8N6T7); format: biochemical; conditions: 100 μM, 30 °C, 60 minutes
Sirt1 [2] = target: T3, Sirt1 (Homo sapiens, UniProt Q96EB6); test: Sirt1 deacetylation Activity Assay Kit; conditions: time course, Fig. 3
T3 sequence (Q96EB6 1-747): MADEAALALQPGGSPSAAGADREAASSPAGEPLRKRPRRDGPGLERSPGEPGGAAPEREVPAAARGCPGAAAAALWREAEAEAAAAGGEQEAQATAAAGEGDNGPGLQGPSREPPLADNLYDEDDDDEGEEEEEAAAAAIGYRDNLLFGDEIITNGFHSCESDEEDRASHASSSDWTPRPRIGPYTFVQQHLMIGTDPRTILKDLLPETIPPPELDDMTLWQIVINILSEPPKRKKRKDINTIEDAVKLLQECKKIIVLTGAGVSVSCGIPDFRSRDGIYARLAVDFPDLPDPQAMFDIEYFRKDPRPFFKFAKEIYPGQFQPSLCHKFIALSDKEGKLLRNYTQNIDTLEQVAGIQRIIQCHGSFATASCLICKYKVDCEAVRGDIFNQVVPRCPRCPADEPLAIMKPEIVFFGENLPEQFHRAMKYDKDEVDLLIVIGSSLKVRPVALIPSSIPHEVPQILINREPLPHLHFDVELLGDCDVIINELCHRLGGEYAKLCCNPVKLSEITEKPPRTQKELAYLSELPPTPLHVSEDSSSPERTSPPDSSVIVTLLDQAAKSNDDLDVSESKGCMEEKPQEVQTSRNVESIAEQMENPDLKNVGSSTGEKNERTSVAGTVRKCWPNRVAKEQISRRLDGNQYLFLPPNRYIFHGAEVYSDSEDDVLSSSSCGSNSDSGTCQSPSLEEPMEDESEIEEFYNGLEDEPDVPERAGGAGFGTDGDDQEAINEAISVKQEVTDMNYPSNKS

Sirt2 [3] = target: T4, Sirt2 (Homo sapiens, UniProt Q8IXJ6); test: Sirt2 deacetylation Activity Assay Kit; conditions: time course, Fig. 3
T4 sequence (Q8IXJ6 1-389): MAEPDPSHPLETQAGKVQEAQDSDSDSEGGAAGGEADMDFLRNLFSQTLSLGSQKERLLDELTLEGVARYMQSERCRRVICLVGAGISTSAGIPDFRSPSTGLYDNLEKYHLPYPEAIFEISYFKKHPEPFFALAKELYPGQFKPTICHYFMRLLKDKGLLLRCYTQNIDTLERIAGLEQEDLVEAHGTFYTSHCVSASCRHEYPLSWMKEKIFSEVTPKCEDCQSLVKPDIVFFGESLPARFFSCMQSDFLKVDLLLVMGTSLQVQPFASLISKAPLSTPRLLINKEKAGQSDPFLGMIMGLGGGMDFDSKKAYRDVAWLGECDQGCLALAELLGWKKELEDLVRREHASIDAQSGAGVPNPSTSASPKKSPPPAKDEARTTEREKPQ

Sirt3 [4] = target: T5, Sirt3 (Homo sapiens, UniProt Q9NTG7); test: Sirt3 deacetylation Activity Assay Kit; conditions: time course, Fig. 3
T5 sequence (Q9NTG7 1-399): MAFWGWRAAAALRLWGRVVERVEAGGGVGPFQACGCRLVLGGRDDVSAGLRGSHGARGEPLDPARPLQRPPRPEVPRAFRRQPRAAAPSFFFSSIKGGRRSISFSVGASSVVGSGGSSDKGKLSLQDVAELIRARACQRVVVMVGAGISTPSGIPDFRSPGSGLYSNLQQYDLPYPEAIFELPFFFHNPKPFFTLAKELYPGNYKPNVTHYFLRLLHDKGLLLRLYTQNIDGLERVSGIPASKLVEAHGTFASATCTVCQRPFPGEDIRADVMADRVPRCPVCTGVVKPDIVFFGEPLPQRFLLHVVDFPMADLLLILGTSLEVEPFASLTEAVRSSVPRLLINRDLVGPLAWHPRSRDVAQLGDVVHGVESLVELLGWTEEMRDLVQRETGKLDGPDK

BV2 cells = test: LPS-induced inflammatory gene mRNA expression; conditions: 30 μM pretreatment 30 minutes, 100 ng/mL LPS 6 hours
Sirt6 [5] = target: T2, Sirt6; test: Sirt6-dependent peptide deacetylation, Fluor de Lys; conditions: Fig. 3A
Sirt1 [6] = target: T3, Sirt1; conditions: cited from earlier work
Sirt2 [7] = target: T4, Sirt2; conditions: cited from earlier work
Sirt3 [8] = target: T5, Sirt3; conditions: cited from earlier work

T2 sequence (Q8N6T7 whole entry): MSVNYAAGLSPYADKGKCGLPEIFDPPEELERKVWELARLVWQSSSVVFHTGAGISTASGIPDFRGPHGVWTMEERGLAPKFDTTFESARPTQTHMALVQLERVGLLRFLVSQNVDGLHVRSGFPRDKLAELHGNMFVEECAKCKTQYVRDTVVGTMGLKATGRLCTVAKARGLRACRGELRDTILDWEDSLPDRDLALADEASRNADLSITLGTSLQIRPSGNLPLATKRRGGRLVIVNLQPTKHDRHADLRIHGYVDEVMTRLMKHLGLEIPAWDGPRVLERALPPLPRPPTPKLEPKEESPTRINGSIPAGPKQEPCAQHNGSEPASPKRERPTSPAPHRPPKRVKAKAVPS

effect on Sirt5 desuccinylation activity (Sirt5) | acetylation of H3K9 in the nucleosome test (Sirt6 [1]) | effect on Sirt1 deacetylation activity (Sirt1 [2]) | effect on Sirt2 deacetylation activity (Sirt2 [3]) | effect on Sirt3 deacetylation activity (Sirt3 [4]) | effect on Sirt6 activity (time course) (Sirt6 [5]) | Compound | ICAM-1 induction (BV2 cells) | LPS-induced expression of IL-1β (BV2 cells) | LPS-induced expression of IL-6 (BV2 cells) | LPS-induced expression of MCP-1 (BV2 cells) | LPS-induced expression of TNFα (BV2 cells) | effect on basal Sirt1 deacetylation activity (Sirt1 [6]) | effect on basal Sirt2 deacetylation activity (Sirt2 [7]) | effect on basal Sirt3 deacetylation activity (Sirt3 [8])
no significant effects | significantly decreased | no significant effects | no significant effects | no significant effects | specifically promoted | CN(C)CCN1CCN(c2ncccc2C2Nc3ccccc3-n3cccc32)CC1 (stereo not drawn) [Compound 38, 2-(4-(3-(4,5-Dihydropyrrolo[1,2-a]quinoxalin-4-yl)pyridin-2-yl)piperazin-1-yl)-N,N-dimethylethan-1-amine] | slight inhibition | strongly inhibited | strongly inhibited | strongly inhibited | strongly inhibited |  |  | 
 |  |  |  |  |  | c1cncc(C2Nc3ccccc3-n3cccc32)c1 (stereo not drawn) [UBCS039, reference compound] |  | strongly inhibited | strongly inhibited | strongly inhibited | strongly inhibited | no obvious effects | no obvious effects | no obvious effects
